# Experimental data from patent US7208526B2, “Styrylsulfonamides” (Hoffmann-La Roche Inc., priority 2005, dated 2007).
# Structures can show the parent of a compound that is named as a salt.
# System: HCT 116 cells (human colon carcinoma, ATCC-No. CCl-247)
# Assay: Viability assay in HCT 116 cells (CellTiter-Glo Luminescent Cell Viability Assay)
# Format: cell-based
# Settings: 10 concentrations 30 μM to 0.0015 μM, incubation 120 h (5 days), luminescence (ATP), triplicate
# Text: Viability Assay in HCT 116 Cells
# This assay is a homogeneous method of determining the number of viable cells in culture based on quantitation of the ATP present, an indicator of metabolically active cells. The assay is designed for use with multiwell formats, making it ideal for automated high-throughput screening (HTS), cell proliferation and cytotoxicity assays. The homogeneous assay procedure involves adding a single reagent (containing luciferase, luciferan substrate, and buffer) directly to cells cultured in serum-supplemented medium. Cell washing, removal of medium and multiple pipetting steps are not required. The system detects as few as 15 cells/well in a 384-well format in 10 minutes after adding reagent and mixing.
# The homogeneous “add-mix-measure” format results in cell lysis and generation of a luminescent signal proportional to the amount of ATP present. The amount of ATP is directly proportional to the number of cells present in culture. The above-referenced assay generates a “glow-type” luminescent signal, produced by the luciferase reaction, which has a half-life generally greater than five hours, depending on cell type and medium used. The extended half-life eliminates the need to use reagent injectors and provides flexibility for continuous or batch mode processing of multiple plates. The unique homogeneous format avoids errors that may be introduced by other ATP measurement methods that require multiple steps.
# For the assay the cells were seeded in 384 well plates, 1000 cells per well, in the same medium. […] After 5 days the viability assay was done according to the instructions of the manufacturer. In brief: the cell-plate was equilibrated to room temperature for approximately 30 minutes and then reagent (containing luciferase, luciferan substrate, and buffer) was added. The contents were carefully mixed for 15 minutes to induce cell lysis. After 45 minutes the luminescent signal was measured in Victor 2, (scanning multiwell spectrophotometer, Wallac).
# In order to achieve a final concentration of 30 μM as highest concentration […] of 10 mM compound stock solution were added directly to 163 μl media. Then step e) of the dilution procedure described below, was followed.
# Analysis: • Add 30 μl of reagent containing luciferase, luciferan substrate, and buffer per well, • shake 15 minutes at room temperature • incubate further 45 minutes at room temperature without shaking
# Measurement: • Victor 2 scanning multiwell spectrophotometer (Wallac), Luminescence mode (0.5 sec/read, 477 nm) • Determine IC50 using a non-linear curve fit (XLfit® software [ID Business Solution Ltd., Guilford, Surrey, UK])
row,SMILES,IC50
1,"Cc1ccc(C(=O)NS(=O)(=O)/C=C/c2ccc(C(F)(F)F)cc2)c(C)c1 [Example 4-40, (E)-2-(4-Trifluoromethyl-phenyl)-ethenesulfonic acid 2,4-dimethyl-benzoylamide; sodium salt]",0.5 to 15 µM
2,"O=C(NS(=O)(=O)/C=C/c1ccc(C(F)(F)F)cc1)c1ccc(F)cc1C(F)(F)F [Example 1-42, (E)-2-(4-Trifluoromethyl-phenyl)-ethenesulfonic acid 4-fluoro-2-trifluoromethyl-benzoylamide; sodium salt]",0.5 to 15 µM
3,"COc1ccccc1/C=C/S(=O)(=O)NC(=O)c1ccc(C(F)(F)F)cc1C(F)(F)F [Example 1-28, (E)-2-(2-Methoxy-phenyl)-ethenesulfonic acid 2,4-bis-trifluoromethyl-benzoylamide; sodium salt]",0.5 to 15 µM
4,"O=C(NS(=O)(=O)/C=C/c1ccccc1Cl)c1ccc(Cl)cc1Cl [Example 1-7, (E)-2-(2-Chlorophenyl)-ethenesulfonic acid 2,4-dichloro-benzoylamide]",0.5 to 15 µM
5,"O=C(NS(=O)(=O)/C=C/c1ccc(OC(F)(F)F)cc1)c1ccc(Cl)cc1Cl [Example 1-9, (E)-2-(4-Trifluoromethoxyphenyl)-ethenesulfonic acid 2,4-dichloro-benzoylamide]",0.5 to 15 µM
6,"O=C(NS(=O)(=O)/C=C/c1ccccc1)c1ccc(Cl)cc1Cl [Example 1-2, (E)-2-Phenyl-ethenesulfonic acid 2,4-dichloro-benzoylamide]",3.1 µM
7,"O=C(NS(=O)(=O)/C=C/c1ccccc1Cl)c1ccc(F)cc1C(F)(F)F [Example 1-23, (E)-2-(2-Chlorophenyl)-ethenesulfonic acid 4-fluoro-2-trifluoromethyl-benzoylamide; sodium salt]",0.5 to 15 µM
8,"COc1cc(F)ccc1C(=O)NS(=O)(=O)/C=C/c1ccccc1 [Example 5-3, (E)-2-Phenyl-ethenesulfonic acid 4-fluoro-2-methoxy-benzoylamide]",0.5 to 15 µM
9,"COc1ccccc1/C=C/S(=O)(=O)NC(=O)c1ccc(Cl)cc1C [Example 4-4, (E)-2-(2-Methoxy-phenyl)-ethenesulfonic acid 4-chloro-2-methyl-benzoylamide; sodium salt]",0.5 to 15 µM
10,"CN(C)c1ccccc1/C=C/S(=O)(=O)NC(=O)c1ccc(Cl)cc1Cl [Example 1-13, (E)-2-(2-Dimethylamino-phenyl)-ethenesulfonic acid 2,4-dichloro-benzoylamide]",0.5 to 15 µM
11,"O=C(NS(=O)(=O)/C=C/c1ccccc1)c1ccc(F)cc1Br [Example 6-2, (E)-2-Phenyl-ethenesulfonic acid 2-bromo-4-fluoro-benzoylamide; sodium salt]",0.5 to 15 µM
12,"O=C(NS(=O)(=O)/C=C/c1ccccc1)c1ccc(F)cc1C(F)(F)F [Example 1-45, (E)-2-Phenyl-ethenesulfonic acid 4-fluoro-2-trifluoromethyl-benzoylamide; sodium salt]",0.5 to 15 µM
13,"O=C(NS(=O)(=O)/C=C/c1ccccc1Cl)c1ccc(F)cc1Br [Example 4-21, (E)-2-(2-Chlorophenyl)-ethenesulfonic acid 2-bromo-4-fluoro-benzoylamide; sodium salt]",0.5 to 15 µM
14,"COc1cccc(/C=C/S(=O)(=O)NC(=O)c2ccc(Cl)cc2OC)c1 [Example 4-5, (E)-2-(3-Methoxy-phenyl)-ethenesulfonic acid 4-chloro-2-methoxy-benzoylamide; sodium salt]",0.5 to 15 µM
15,"C/C(=C\c1ccccc1)S(=O)(=O)NC(=O)c1ccc(Cl)cc1Cl [Example 2-1, (E)-1-Phenyl-propene-2-sulfonic acid 2,4-dichloro-benzoylamide]",0.5 to 15 µM
16,"O=C(NS(=O)(=O)/C=C/c1ccccc1)c1ccc(Cl)cc1Br [Example 5-4, (E)-2-Phenyl-ethenesulfonic acid 2-bromo-4-chloro-benzoylamide]",0.5 to 15 µM
17,"Cc1ccc(C(=O)NS(=O)(=O)/C=C/c2ccc(Cl)c(Cl)c2)c(Br)c1 [Example 4-16, (E)-2-(3,4-Dichloro-phenyl)-ethenesulfonic acid 2-bromo-4-methyl-benzoylamide; sodium salt]",0.5 to 15 µM
